Measurements taken from patent US11732256B2, “Multivalent glycopeptides that tightly bind to target proteins” (Brandeis University, priority 2013, dated 2023).

Test system: HIV broadly neutralizing antibody 2G12
Assay: Radioactive 2G12-glycopeptide binding assay with protein G magnetic beads (binding curve and KD determination)
Conditions: Cys mutated to Ser
Procedure: The sequences were obtained by cloning non-selected library DNA. […] FIG. 9B is an SDS-PAGE analysis of the click reaction of the non-selected peptides. Both peptides were transcribed and translated from PCR-amplified DNA in Pure System that contains 0.02 mg/mL T7 RNA polymerase and additional 1 mM each NTP. The peptides were labeled with 3H-histidine and the bands were visualized by fluorography.
For round 10 winners, 0.12-0.2 nM radioactive glycopeptides were incubated with 0, 0.25, 0.5, 1, 2, 4, 8, 16, 32 or 64 nM 2G12 in 40 μL of selection buffer at room temperature for 1 h. Then, the solution was added to 0.12 mg of pre-equilibrated Dynabeads Protein G and tumbled at room temperature for 30 min. The supernatant was removed and the beads were washed with 3×40 μL of selection buffer. The radioactivities of the supernatant and wash solutions were measured by liquid scintillation counting as unbound fractions. […] The beads were resuspended in 40 μL of selection buffer, heated at 70° C. for 30 min to elute the bound glycopeptides, chilled on ice for 5 min, and tumbled at room temperature for 10 min. The supernatant was removed, and the beads were washed with 40 μL of selection buffer and resuspended in 40 μL of selection buffer. The radioactivities of these solutions and suspensions were measured by liquid scintillation counting separately and the values were combined as apparent bound fractions. […] All experiments were done at least in triplicate. KDs were calculated as described in the footnote of Table 4 (below).

CC[C@H](C)[C@H](NC(=O)[C@H](CCC(N)=O)NC(=O)[C@H](CCCCN)NC(=O)[C@H](CC(C)C)NC(=O)[C@H](Cc1c[nH]cn1)NC(=O)[C@H](CC(C)C)NC(=O)[C@@H](NC(=O)[C@H](CC(=O)O)NC(=O)[C@H](CCc1cn(C2CCC(OC3O[C@H](CO[C@H]4O[C@H](CO[C@H]5O[C@H](CO)[C@@H](O)[C@H](O)[C@@H]5O[C@H]5O[C@H](CO)[C@@H](O)[C@H](O)[C@@H]5O)[C@@H](O)[C@H](O[C@H]5O[C@H](CO)[C@@H](O)[C@H](O)[C@@H]5O[C@H]5O[C@H](CO)[C@@H](O)[C@H](O)[C@@H]5O)[C@@H]4O)[C@@H](O)[C@H](O[C@H]4O[C@H](CO)[C@@H](O)[C@H](O)[C@@H]4O[C@H]4O[C@H](CO)[C@@H](O)[C@H](O)[C@@H]4O[C@H]4O[C@H](CO)[C@@H](O)[C@H](O)[C@@H]4O)[C@@H]3O)CC2)nn1)NC=O)[C@@H](C)O)C(=O)NCC(=O)NCC(=O)N[C@@H](CCc1cn(C2CCC(OC3O[C@H](CO[C@H]4O[C@H](CO[C@H]5O[C@H](CO)[C@@H](O)[C@H](O)[C@@H]5O[C@H]5O[C@H](CO)[C@@H](O)[C@H](O)[C@@H]5O)[C@@H](O)[C@H](O[C@H]5O[C@H](CO)[C@@H](O)[C@H](O)[C@@H]5O[C@H]5O[C@H](CO)[C@@H](O)[C@H](O)[C@@H]5O)[C@@H]4O)[C@@H](O)[C@H](O[C@H]4O[C@H](CO)[C@@H](O)[C@H](O)[C@@H]4O[C@H]4O[C@H](CO)[C@@H](O)[C@H](O)[C@@H]4O[C@H]4O[C@H](CO)[C@@H](O)[C@H](O)[C@@H]4O)[C@@H]3O)CC2)nn1)C(=O)N1CCC[C@H]1C(=O)N[C@@H](CC(N)=O)C(=O)N[C@@H](CS)C(=O)N[C@H](C(=O)N[C@H](C(=O)N[C@@H](CCC(N)=O)C(=O)N[C@@H](CCC(N)=O)C(=O)N[C@@H](CC(=O)O)C(=O)N[C@H](C(=O)N[C@@H](CCCNC(=N)N)C(=O)N[C@@H](CCc1cn(C2CCC(OC3O[C@H](CO[C@H]4O[C@H](CO[C@H]5O[C@H](CO)[C@@H](O)[C@H](O)[C@@H]5O[C@H]5O[C@H](CO)[C@@H](O)[C@H](O)[C@@H]5O)[C@@H](O)[C@H](O[C@H]5O[C@H](CO)[C@@H](O)[C@H](O)[C@@H]5O[C@H]5O[C@H](CO)[C@@H](O)[C@H](O)[C@@H]5O)[C@@H]4O)[C@@H](O)[C@H](O[C@H]4O[C@H](CO)[C@@H](O)[C@H](O)[C@@H]4O[C@H]4O[C@H](CO)[C@@H](O)[C@H](O)[C@@H]4O[C@H]4O[C@H](CO)[C@@H](O)[C@H](O)[C@@H]4O)[C@@H]3O)CC2)nn1)C(=O)N[C@H](C(=O)N[C@@H](CO)C(=O)N[C@H](C(=O)N1CCC[C@H]1C(=O)N[C@@H](Cc1ccc(O)cc1)C(=O)N[C@H](C(=O)N[C@@H](Cc1ccc(O)cc1)C(=O)N[C@H](C(=O)N[C@@H](Cc1c[nH]c2ccccc12)C(=O)N1CCC[C@H]1C(=O)NCC(=O)N[C@@H](CO)C(=O)NCC(=O)N[C@@H](CO)C(=O)N[C@@H](CC(C)C)C(=O)NCC(=O)N[C@@H](Cc1c[nH]cn1)C(=O)N[C@@H](Cc1c[nH]cn1)C(=O)N[C@@H](Cc1c[nH]cn1)C(=O)N[C@@H](Cc1c[nH]cn1)C(=O)N[C@@H](Cc1c[nH]cn1)C(=O)N[C@@H](Cc1c[nH]cn1)C(=O)N[C@@H](CCCNC(=N)N)C(=O)N[C@@H](CC(=O)O)C(=O)N[C@@H](Cc1ccc(O)cc1)C(=O)N[C@@H](CCCCN)C(=O)N[C@@H](CC(=O)O)C(=O)N[C@@H](CC(=O)O)C(=O)N[C@@H](CC(=O)O)C(=O)N[C@@H](CC(=O)O)C(=O)N[C@@H](CCCCN)C(=O)O)[C@@H](C)O)[C@@H](C)O)[C@@H](C)CC)[C@@H](C)O)C(C)C)[C@@H](C)O)[C@@H](C)CC (stereo partly shown) [Clone 10F3, XDTLHLKQIGGXPNCITQQDVRXTSIPYTYTWP]
Tolerance of Cys substitutions for 2G12 binding: tolerated
